We go through 17 molecules from patent US20120135091A1, “METHODS AND COMPOSITIONS FOR ENHANCING LIFESPAN INVOLVING SIRTUIN-MODULATING COMPOUNDS AND CHALCOGENIDES” (priority 2007, published 2012).

Series [1] relates to C57BL/6 mice.
Experimental: In one set of experiments, compositions were tested in male C57BL/6 jugular vein catheterized (JVC) mice, 5-6 weeks old (Taconic), by infusing the animals with the liquid sulfide liquid compositions using 1 mL or 5 mL Luer-Lok syringes (Becton Dickison). An IPTT-300 transponder from Bio Medic Data Systems (BMDS) was used to monitor body temperature.
Each mouse was dosed with liquid compositions through the in-dwelling catheter using an infusion pump (Harvard Apparatus). The mouse was infused until the temperature chip implanted in the skin registered a body temperature of 33° C. […] Once the animal's temperature dropped to 33° C. or below, the infusion was stopped and the mouse was transferred into a hypoxic atmosphere (4.0% O2) together with a control mouse.
Series [2] concerns C. elegans. The series can be described thus: Brood size measurement. The format is in vivo. The conditions noted are these: moved to H2S, n=5. An excerpt: Brood size measurement. To determine the number of viable progeny produced by nematodes, individual fourth-stage larvae (L4) were transferred to NGM plates with OP50 food at room temperature. Animals were moved daily until they quit laying fertilized eggs. Progeny were counted as L4/young adult.

Series [3] has as its system C. elegans. The series can be described thus: Thermotolerance assay (survival at high temperature). The format is in vivo. Here is the method:
(§1) Growing Nematodes in H2S-Containing Atmospheres. Bristol strain N2 (wild-type) and mutant nematode strains were grown at room temperature on nematode growth medium (NGM) plates seeded with live E. coli OP50 food (48). Mutant strains obtained from the C. elegans genetic stock center were as follows: CB130, daf-2(e1370); DR26, daf-16(m26); VC520, isp-1(gk267); MQ130, clk-1(qm30); DA1116, eat-2(ad1116); VC199, sir-2.1(ok434). Plates were maintained in atmospheric chambers sealed with Dow Corning Vacuum Grease (Sigma). […] Gasses were hydrated using gas wash bottles (Fisher), and moved through ⅛ inch outer diameter FEP tubing (Cole Parmer) with connections by snap connectors (Cole Parmer), stainless steel quick connect fittings or compression fittings (Seattle Fluid Systems). […] All compressed gas mixtures used in this study were obtained from Byrne Gas and were certified standard to within 2% of indicated concentration. Flow tubes (Aalborg) were used to distribute the gas mixture to different chambers. Gas flow rate was 100 cc/m to small boxes (100-300 mL) and 800 cc/m to the large boxes (1-3 L) used to culture nematode strains at room temperature. At these flow rates, the gaseous environment of the atmospheric chambers is exchanged every 20-30 minutes. […] Data were collected using Chart software with a Powerlab data acquisition unit (ADInstruments) and analyzed with EXCEL.
Thermotolerance Assay. […] Care was taken to prevent the population from starving. Nematodes were picked from these mixed-stage populations as L4 larvae and allowed to develop for 24-48 h at room temperature; however, treated and control animals were always the same age. […] Groups of 20-30 animals were transferred to NGM plates without food and then placed into an atmospheric chamber perfused with the indicated gas at high temperature in an Echotherm 1N35 incubator (Torrey Pines Scientific, NIST traceable) or a VWR incubator model 2005 (VWR International). A ring of palmitic acid around the edge of the plate helped prevent the worms escaping the surface of the agar. […]

Series [4] deals with C. elegans. Briefly: Lifespan in H2S-containing atmosphere. The class given is in vivo. Here is the method: as §1
For a further series, the system named is mice. The conditions noted are these: mouse, in vivo.
Series [5] relates to C. elegans. The series can be described thus: Rate of egg-laying. The format is in vivo. On the procedure: Animals were picked as L4 from mixed-stage populations and allowed to develop for 20-30 hours in the same conditions at room temperature. Individual worms were then placed onto NGM plates with a 10 μL spot of OP50 food. The number of embryos laid in 3-5 hours was counted to determine the rate of egg-laying. To create an atmosphere with 2% O2, N2 was mixed with 5% O2 balanced with N2. Smart-Trak series 100 mass flow controllers (Sierra Instruments) were used to mix the gas and to split it into 2 atmospheric chambers. […] In each experiment, 10-15 individuals were included in each group. The data shown in Table 2 are from one experiment that is representative of at least three independent assays.

In series [6] the test system is C57BL/6 mice. The class given is in vivo, mouse.
The mark [7] stands for this setting: 4.0% O2 after infusion until body temperature 33° C., test ended at 60 minutes.
Where [8] appears, read: jugular vein infusion until body temperature of 33° C.

Where two headings read alike, the source gives them in different places.

Take `OCCS` [2-Mercapto-ethanol]: the toxicity result with C57BL/6 mice [1] (mouse, in vivo) is “toxic”. Also, the “reduction of body (subcutaneous) temperature” value (“reduction of body” below) in the series on C57BL/6 mice [1] (mouse, in vivo, sc) is “reduced body temperature”.
Turning to `SCCOCCS` [2-mercaptoethyl ether], the “reduction of body” value in the series with C57BL/6 mice [1] (infusion, primary screen) was “reduced body temperature”. Further, the toxicity result in the series on C57BL/6 mice [1] (mouse, in vivo) was “toxic”.
For `C[S+](C)[O-]` [Dimethylsulfoxide], the effective dose in the series on C57BL/6 mice [1] (too high to be considered for pharmaceutical purposes) was determined as 10 % DMSO.
As for `S` [H2S, hydrogen sulfide], the number of progeny in the series with C. elegans [2] is 227±18. Besides, the “fraction of H2S-treated animals alive when the last untreated control animal had expired (mean)” value in the series with C. elegans [3] (15 experiments, L4 to 3rd day adults, 33 to 37 C (FIG. 11A)) came out at 0.8. Moreover, the “average of H2S-treated animals alive when all untreated animals had died” value with C. elegans [3] (15 independent experiments, high temperature) is on record as 77-80%. Also, in the series on C. elegans [3] (grown in H2S before heat-shock, exposed to 35 C in room air (FIG. 2C)), the “survival time at high temperature” value stood at 7.3 h. Besides, the “delay in reaching 75% mortality versus control population (maximum lifespan)” value in the series on C. elegans [4] (H2S-treated animals) is on record as 10 days. For the same molecule, the lifespan with C. elegans [4] (raised in H2S until L4, monitored in room air (FIG. 3C)) worked out at 12.8 ± 0.7 days. Besides, the “recovery after survival in 5% O2” value in the series on mice was “no noticeable motor or behavioral deficits”. For the same molecule, the “average rate of egg-laying” value was found to be 2.5 ± 1.0 embryos per hour in the series with C. elegans [5] (clk-1(qm30), assayed in 2% O2 + H2S); 3.2 ± 1.1 embryos per hour in the series with C. elegans [5] (clk-1(qm30), assayed in H2S); 4.5 ± 1.6 embryos per hour with C. elegans [5] (unadapted (wild-type grown in room air), assayed in 2% O2 + H2S); 8.3 ± 3.0 embryos per hour in the series on C. elegans [5] (unadapted (wild-type grown in room air), assayed in H2S).
Regarding `CC(=O)N[C@@H](CS)C(=O)O` [N-acetyl-L-cysteine], the “reduction of body” value in the series with C57BL/6 mice [1] (infusion, primary screen) is “did not reduce subcutaneous temperature”.
In the case of `CC(O)=S` [Thioacetic acid], in the series on C57BL/6 mice [6] (lethal hypoxia 4% O2), the “enhancement of survival in hypoxia” value is recorded as “did not enhance survival in hypoxia”. The “reduction of body” value in the series with C57BL/6 mice [1] (mouse, in vivo, sc) was “reduced body temperature”.
Consider `NCCS` [cysteamine], for which the “survival in lethal hypoxia” value with C57BL/6 mice [6] (setting [7]) stood at 45 min. Further, the effective dose with C57BL/6 mice [1] (mouse, in vivo) is recorded as 7.58 mmol/kg.
As to `CSC` [dimethyl sulfide], the “reduction of body” value in the series on C57BL/6 mice [1] (infusion, primary screen) is “did not reduce subcutaneous temperature”.
Turning to `NCCCNCCSP(=O)(O)O` [phosphorothioic acid S-(2-((3-aminopropyl)amino)ethyl)ester], in the series with C57BL/6 mice [6] (mouse, in vivo), the “enhancement of survival in hypoxia” value is recorded as “did not enhance survival in hypoxia”. Also, the “reduction of body” value in the series on C57BL/6 mice [1] (mouse, in vivo, sc) is given as “reduced body temperature”.
Turning to `N=C(N)[SeH]` [selenourea], the “enhancement of survival in hypoxia” value in the series on C57BL/6 mice [6] (lethal hypoxia 4% O2) is “did not enhance survival in hypoxia”. In addition, in the series on C57BL/6 mice [1] (mouse, in vivo, sc), the “reduction of body” value is on record as “reduced body temperature”.
Take `CS(=O)[O-].[Na+]` [sodium methane sulfinate]: in the series with C57BL/6 mice [1] (infusion, primary screen), the “reduction of body” value is “did not reduce subcutaneous temperature”.
Take `[SeH2]` [sodium selenide]: in the series on C57BL/6 mice [1] (mouse, in vivo, sc), the “reduction of body” value was “did not reduce subcutaneous temperature”.
Regarding `N#C[S-].[Na+]` [sodium thiocyanate], the effective dose in the series with C57BL/6 mice [1] (setting [8]) is reported as 4.67 mmol/kg.
In the case of `C[S-].[Na+]` [sodium thiomethoxide], the “survival in lethal hypoxia” value with C57BL/6 mice [6] (setting [7]) stood at 60 min. The effective dose in the series on C57BL/6 mice [1] (setting [8]) stood at 4.61 mmol/kg.
`OC1CCSCC1` [tetrahydrothiopyran-4-ol]: in the series on C57BL/6 mice [6] (setting [7]), the “survival in lethal hypoxia” value amounted to 15 min.
In the case of `O=C(O)CS` [thioglycolic acid], the “reduction of body” value in the series with C57BL/6 mice [1] (infusion, primary screen) is on record as “reduced body temperature”. Moreover, the toxicity entry in the series on C57BL/6 mice [1] (mouse, in vivo) is recorded as “toxic”.
Regarding sodium sulfide, in the series on C57BL/6 mice [6] (mouse, in vivo), the “survival in lethal hypoxia” value stood at 60 min. The effective dose in the series with C57BL/6 mice [1] (mouse, in vivo) is 0.79 mmol/kg.
